The source of these data is patent US20080194616A1, “PYRIDOPYRIMIDINONE COMPOUNDS USEFUL IN TREATING SODIUM CHANNEL-MEDIATED DISEASES OR CONDITIONS” (Xenon Pharmaceuticals Inc., priority 2007, published 2008).

In one series the test system is sodium channel. Nature of the series: Guanidine Influx Assay (In Vitro Assay). The following applies: known cell line that expresses a sodium channel; read-out: IC50 Activity Level. The format is cell-based, human or rat. The source says: This example describes an in vitro assay for testing and profiling test agents against human or rat sodium channels stably expressed in cells of either an endogenous or recombinant origin. The assay is also useful for determining the IC-50 of a sodium channel blocking compound. The assay is based on the guanidine flux assay described by Reddy, N. L., et al., J. Med. Chem. (1998), 41(17):3298-302.
The guanidine influx assay is a radiotracer flux assay used to determine ion flux activity of sodium channels in a high-throughput microplate-based format. The assay uses ^14C-guanidine hydrochloride in combination with various known sodium channel modulators, to assay the potency of test agents. Potency is determined by an IC-50 calculation. Selectivity is determined by comparing potency of the compound for the channel of interest to its potency against other sodium channels (also called ‘selectivity profiling’).
Each of the test agents is assayed against cells that express the channels of interest. Voltage gated sodium channels are either TTX sensitive or insensitive. This property is useful when evaluating the activities of a channel of interest when it resides in a mixed population with other sodium channels. The following Table 1 summarizes cell lines useful in screening for a certain channel activity in the presence or absence of TTX.
Cells expressing the channel of interest are grown according to the supplier or in the case of a recombinant cell in the presence of selective growth media such as G418 (Gibco/Invitrogen). The cells are disassociated from the culture dishes with an enzymatic solution (1×) Trypsin/EDTA (Gibco/Invitrogen) and analyzed for density and viability using haemocytometer (Neubauer). Disassociated cells are washed and resuspended in their culture media then plated into Scintiplates (Beckman Coulter Inc.) (approximately 100,000 cells/well) and incubated at 37° C./5% CO2. for 20-24 hours. After an extensive wash with Low sodium HEPES-buffered saline solution (LNHBSS) (150 mM Choline Chloride, […] (Sigma), 1 mM Calcium Chloride, 5 mM Potassium Chloride, 1 mM Magnesium Chloride, 10 mM Glucose) agents diluted with LNHBSS are added to each well. (Varying concentrations of test agent may be used). The activation/radiolabel mixture contains aconitine (Sigma), and ^14C-guanidine hydrochloride (ARC).
After loading the cells with test agent and activation/radiolabel mixture, the Scintiplates are incubated at ambient temperature. Following the incubation, the Scintplates are extensively washed with LNHBSS supplemented with guanidine (Sigma). The Scintiplates are dried and then counted using a Wallac MicroBeta TriLux (Perkin-Elmer Life Sciences). The ability of the test agent to block sodium channel activity is determined by comparing the amount of ^14C-guanidine present inside the cells expressing the different sodium channels.
IC-50 value of a test agent for a specific sodium channel may be determined using the above general method. IC-50 may be determined using a 3,8,10,12 or 16 point curve in duplicate or triplicate with a starting concentration of 1, 5 or 10 μM diluted serially with a final concentration reaching the sub-nanomolar, nanomolar and low micromolar ranges. Typically the mid-point concentration of test agent is set at 1 μM, and sequential concentrations of half dilutions greater or smaller are applied (e.g. 0.5 μM; […] and 0.25 μM; 10 μM and 0.125 μM; 20 μM etc.). The IC-50 curve is calculated using the 4 Parameter Logistic Model or Sigmoidal Dose-Response Model formula (fit=(A+((B−A)/(1+((C/x)̂D)))).

Another series deals with SK-N-BE2C. Format: cell-based, human.
The test system of the next series is L6 (rat myoblast cell). The format is cell-based.
In series [1] the test system is PC12 (rat pheochromocytoma). The format is cell-based.
The subject of a further series is CHO-K1. The format is cell-based, Chinese Hamster.

Each structure is given as a SMILES string.

For the compound `CC(C)Nc1nc2ccccn2c(=O)c1-c1ccc(NC2CCN(C(=O)OC(C)(C)C)C2)cc1` (centres unmarked) [Example 3.22, tert-butyl 3-[(4-{2-[(1-methylethyl)amino]-4-oxo-4H-pyrido[1,2-a]pyrimidin-3-yl}phenyl)amino]pyrrolidine-1-carboxylate], the melting point (in general, the temperature of the solid-liquid transition) lay in the range of 210 to 212 °C. In the series with sodium channel, the half-maximal inhibitory concentration (IC50) (usually the concentration needed to halve the response being measured) is ≥ 10 µM.
Taken in the same sequence, the figures for `CCCCc1nc2ccccn2c(=O)c1-c1ccc(NC(=O)[C@@H]2CCCN2C(=O)OC(C)(C)C)cc1` [Example 5, (S)-tert-butyl 2-{[4-(2-butyl-4-oxo-4H-pyrido[1,2-a]pyrimidin-3-yl)phenyl]carbamoyl}-pyrrolidine-1-carboxylate] were 179 to 187 °C and ≥ 10 µM.
For `CCCCc1nc2ccccn2c(=O)c1-c1ccc(N[C@@H]2CCNC2)cc1.Cl` [Example 8, (R)-2-butyl-3-(4-(pyrrolidin-3-ylamino)phenyl)-4H-pyrido[1,2-a]pyrimidin-4-one hydrochloride] the same measures were 171 to 174 °C and 1 to 10 µM.
As to `CCCCc1nc2ccccn2c(=O)c1-c1ccc(O)cc1` [Example 11, 2-butyl-3-(4-hydroxyphenyl)-4H-pyrido[1,2-a]pyrimidin-4-one], the melting point is 160 °C (dec.). Moreover, the 50% inhibitory concentration (IC50) with sodium channel is ≥ 10 µM.
For `CCCCc1nc2ccccn2c(=O)c1-c1ccc(NC(=O)[C@@H]2CCCN2)cc1.Cl` [Example 18, (S)—N-[4-(2-butyl-4-oxo-4H-pyrido[1,2-a]pyrimidin-3-yl)phenyl]prolinamide hydrochloride] the same measures were 179 to 187 °C and ≥ 10 µM.
Consider `NC1=N[C@H](O)[C@H]2[C@H]3O[C@]4(O)O[C@@H]([C@@H](O)[C@@]2(N1)[C@@H]4O)[C@]3(O)CO` [TTX, tetrodotoxin], for which the “block of [14C] Guanidine influx” value in the series with SK-N-BE2C is “TTX partially blocked influx”; in the series on L6 (rat myoblast cell), “partially blocked by TTX (Nav1.5”; in series [1] it was “Guanidine influx was completely”; in the series on CHO-K1 it was “Guanidine influx was completely”.
